Test results from ChEMBL document CHEMBL1201862, “PubChem BioAssay data set” (2004).
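These data come from cells grown in 96-well plates and exposed to compound for 48 hours at five concentrations. GI50 marks 50% less growth.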 Calls of active or inactive are those of the source. Cut-off read from the data, not from the text of the source: active = GI50 up to about 1.1 µM and inactive = higher.

Assays:
Test in all cases: NCI tumour cell line growth inhibition, 48 h
NCI-H522 = test system: NCI-H522
SK-MEL-28 = test system: SK-MEL-28
U-251 = test system: U-251
NCI-H460 = test system: NCI-H460
OVCAR-8 = test system: OVCAR-8
SK-MEL-5 = test system: SK-MEL-5
HCC 2998 = test system: HCC 2998
HT-29 = test system: HT-29
SW-620 = test system: SW-620
HCT-116 = test system: HCT-116
LOX IMVI = test system: LOX IMVI
SN12C = test system: SN12C
HOP-92 = test system: HOP-92
RPMI-8226 = test system: RPMI-8226
OVCAR-5 = test system: OVCAR-5
HOP-62 = test system: HOP-62
SF-295 = test system: SF-295
HCT-15 = test system: HCT-15
HL-60 = test system: HL-60
K562 = test system: K562

Compound	GI50 (NCI-H522)	GI50 (SK-MEL-28)	GI50 (U-251)	GI50 (NCI-H460)	GI50 (OVCAR-8)	GI50 (SK-MEL-5)	GI50 (HCC 2998)	GI50 (HT-29)	GI50 (SW-620)	GI50 (HCT-116)	GI50 (LOX IMVI)	GI50 (SN12C)	GI50 (HOP-92)	GI50 (RPMI-8226)	GI50 (OVCAR-5)	GI50 (HOP-62)	GI50 (SF-295)	GI50 (HCT-15)	GI50 (HL-60)	GI50 (K562)
O=S(=O)(O)c1ccc(/N=N\c2ccc(/N=N\c3ccc(/C=C/c4ccc(/N=[N+](/[O-])c5ccc(/C=C/c6ccc(/N=N/c7ccc(/N=N\c8ccc(S(=O)(=O)O)cc8)cc7)cc6S(=O)(=O)O)c(S(=O)(=O)O)c5)cc4S(=O)(=O)O)c(S(=O)(=O)O)c3)cc2)cc1	86.3 µM (inactive)	> 100 µM (inactive)	> 100 µM (inactive)	> 100 µM (inactive)	> 100 µM (inactive)	> 100 µM (inactive)	> 100 µM (inactive)	> 100 µM (inactive)	> 100 µM (inactive)	> 100 µM (inactive)	> 100 µM (inactive)	> 100 µM (inactive)	> 100 µM (inactive)	> 100 µM (inactive)	> 100 µM (inactive)	> 100 µM (inactive)	> 100 µM (inactive)	> 100 µM	> 100 µM (inactive)	> 100 µM (inactive)
CN1C[C@H]2[C@@H](C1=O)[C@H](c1ccc([N+](=O)[O-])cc1)ON2C	> 100 µM (inactive)	> 100 µM (inactive)	> 100 µM (inactive)	> 100 µM (inactive)	> 100 µM (inactive)	> 100 µM (inactive)	> 100 µM (inactive)	> 100 µM (inactive)	> 100 µM (inactive)	> 100 µM (inactive)	> 100 µM (inactive)	> 100 µM (inactive)	> 100 µM (inactive)	> 100 µM (inactive)	> 100 µM (inactive)	> 100 µM (inactive)	> 100 µM (inactive)	> 100 µM	> 100 µM (inactive)	> 100 µM (inactive)
O=C(Nc1ccc(Cl)cc1)C(=O)C(C(=O)c1ccccc1-c1ccccc1)C1OC(=O)c2ccccc21 (stereo not given)	14.2 µM (inactive)	18.4 µM (inactive)	14 µM (inactive)	19.4 µM (inactive)	15.5 µM (inactive)	14.5 µM (inactive)	19.4 µM (inactive)	23.1 µM (inactive)	22.4 µM (inactive)	18.2 µM (inactive)	14.6 µM (inactive)	19.3 µM (inactive)	27 µM (inactive)	26.9 µM (inactive)	28.3 µM (inactive)	26.4 µM (inactive)	26.9 µM (inactive)	17.6 µM	18.5 µM (inactive)	34.4 µM (inactive)
CC(c1ccccc1)/[N+]([O-])=C/c1ccccc1 (stereo not given)	> 100 µM (inactive)	> 100 µM (inactive)	> 100 µM (inactive)	> 100 µM (inactive)	> 100 µM (inactive)		> 100 µM (inactive)	> 100 µM (inactive)	> 100 µM (inactive)	> 100 µM (inactive)	> 100 µM (inactive)		> 100 µM (inactive)	> 100 µM (inactive)	> 100 µM (inactive)	> 100 µM (inactive)	> 100 µM (inactive)		> 100 µM (inactive)	> 100 µM (inactive)
O=C(NC(Cc1ccc(I)cc1)C(=O)O)c1ccc(Cl)cc1 (stereo not given)	74.3 µM (inactive)	> 100 µM (inactive)	> 100 µM (inactive)	> 100 µM (inactive)	> 100 µM (inactive)	> 100 µM (inactive)	> 38.8 µM (inactive)	> 100 µM (inactive)	> 100 µM (inactive)	> 100 µM (inactive)	> 100 µM (inactive)	> 100 µM (inactive)	67.8 µM (inactive)	59.3 µM (inactive)	> 100 µM (inactive)	> 100 µM (inactive)	> 100 µM (inactive)	> 100 µM	> 100 µM (inactive)	> 100 µM (inactive)
CC(C)=CC1CC(=O)C1(C)Sc1ccccc1 (stereo not given)	24 µM (inactive)	> 100 µM (inactive)	67 µM (inactive)	25 µM (inactive)	> 100 µM (inactive)	33.3 µM (inactive)	> 100 µM (inactive)	27.4 µM (inactive)		29.6 µM (inactive)	17.3 µM (inactive)	71.8 µM (inactive)	29.9 µM (inactive)	20.6 µM (inactive)	> 100 µM (inactive)	> 100 µM (inactive)	> 100 µM (inactive)	17.3 µM	22.8 µM (inactive)	21.9 µM (inactive)
Nc1ccn(C2OC(CO)C(O)C2(F)F)c(=O)n1 (stereo not given)	0.318 µM (active)		0.162 µM (active)	0.0504 µM (active)	0.051 µM (active)	0.436 µM (active)	0.728 µM (active)	0.492 µM (active)	0.759 µM (active)	0.0579 µM (active)	0.157 µM (active)	0.261 µM (active)	0.462 µM (active)	0.281 µM (active)	0.547 µM (active)	0.0867 µM (active)	0.254 µM (active)	0.735 µM	0.0249 µM (active)	0.325 µM (active)
CCOC(=O)c1ccc(Nc2nc3cc(C(F)(F)F)ccc3nc2C(=O)OCC)cc1	> 100 µM (inactive)	> 100 µM (inactive)	19.7 µM (inactive)	74.3 µM (inactive)	51.6 µM (inactive)	28.3 µM (inactive)	22.1 µM (inactive)	84.1 µM (inactive)	> 100 µM (inactive)	34.2 µM (inactive)	42.8 µM (inactive)	> 100 µM (inactive)	50 µM (inactive)	> 100 µM (inactive)	> 100 µM (inactive)	22 µM (inactive)	38.3 µM (inactive)	> 100 µM	> 100 µM (inactive)	31 µM (inactive)
COC(=O)C1C(O)C(C)C(O)OC1C(C)C(O)C(C)/C=C\C=C(/C)C(=O)Nc1c(C)c(OC(C)=O)c2c(c1O)C(=O)C(C)=C1OCOC(/C(C)=C/C(C)=O)=C12 (stereo not given)	2.25 µM (inactive)	2.99 µM (inactive)	14.4 µM (inactive)	13.7 µM (inactive)	13.7 µM (inactive)	12.8 µM (inactive)	13.9 µM (inactive)	14.5 µM (inactive)	9.53 µM (inactive)	9.53 µM (inactive)	13.7 µM (inactive)	12.4 µM (inactive)	12.8 µM (inactive)	9.48 µM (inactive)	13.5 µM (inactive)	11.6 µM (inactive)	14.9 µM (inactive)	14.3 µM	3.1 µM (inactive)	16.5 µM (inactive)
O=C(O)c1cn2c3c(cc(N4CCN(CCO)CC4)cc3c1=O)SCC2	26.5 µM (inactive)	> 100 µM (inactive)	> 95.9 µM (inactive)	> 95.7 µM (inactive)	62.8 µM (inactive)	> 100 µM (inactive)	33 µM (inactive)	> 100 µM (inactive)	> 100 µM (inactive)	> 100 µM (inactive)	71.1 µM (inactive)	47.1 µM (inactive)	59.6 µM (inactive)	> 100 µM (inactive)	> 75.5 µM (inactive)	48.4 µM (inactive)	> 100 µM (inactive)	> 100 µM	> 100 µM (inactive)	65.9 µM (inactive)
CCCCCCCCCCCCCCCCNCC(O)CN (stereo not given)	14.5 µM (inactive)	13.1 µM (inactive)	2.51 µM (inactive)	1.84 µM (inactive)	3.53 µM (inactive)	11.7 µM (inactive)	2.39 µM (inactive)	1.99 µM (inactive)	1.79 µM (inactive)	1.87 µM (inactive)	1.75 µM (inactive)	4.07 µM (inactive)	2.65 µM (inactive)	2 µM (inactive)	7.76 µM (inactive)	16.7 µM (inactive)	2.64 µM (inactive)	2.06 µM	1.85 µM (inactive)	1.75 µM (inactive)
C=C1C(=O)OC2/C=C(\C(=O)O)CC/C=C(\C)CC(OC(=O)/C=C(\C)CC)C12 (stereo not given)	17.8 µM (inactive)	18.8 µM (inactive)	17 µM (inactive)	16.1 µM (inactive)	17.2 µM (inactive)	18.8 µM (inactive)	18.6 µM (inactive)	15.7 µM (inactive)	16.6 µM (inactive)	12.9 µM (inactive)	15.3 µM (inactive)	17 µM (inactive)	20.9 µM (inactive)	3.45 µM (inactive)	13.5 µM (inactive)	20.1 µM (inactive)	17.3 µM (inactive)	14.6 µM	72.6 µM (inactive)	> 100 µM (inactive)
C[n+]1c2ccccc2n2c3ccccc3c(NCCCn3ccnc3)c(C#N)c21	0.575 µM (active)	3.48 µM (inactive)	2.18 µM (inactive)	1.44 µM (inactive)	1.55 µM (inactive)	3.09 µM (inactive)	1.36 µM (inactive)	3.31 µM (inactive)	1.49 µM (inactive)	1.08 µM (active)	1.49 µM (inactive)	1.26 µM (inactive)	3.15 µM (inactive)	1.22 µM (inactive)	4.1 µM (inactive)	2.03 µM (inactive)	3.74 µM (inactive)	5.66 µM	3.94 µM (inactive)	2.39 µM (inactive)
